Patent US12226523B2, “Method for preparing self-assembled nanoparticle releasing soluble microneedle structure” (RESEARCH & BUSINESS FOUNDATION SUNGKYUNKWAN UNIVERSITY, priority 2016, dated 2025)

Tested on: cells (HCT-116)
Experiment: Intracellular delivery of nanoparticles produced from soluble microneedles (confocal fluorescence microscope)
Assay type: cell-based
Settings: HCT-116 cells, 4 hours after treatment
Description: To this end, soluble microneedles in which a hydrophobic fluorescent material, DiD (Invitrogen, Carlsbad, CA, USA), used in cell membrane staining, was loaded were manufactured according to the method described in Example 1. Afterward, cells (HCT-116) were treated with a solution in which the microneedles were dissolved according to the method of Example 2, 4 hours later, intracellular delivery of nanoparticles produced from the soluble microneedles was observed using a confocal fluorescence microscope.

CCCCCCCCCCCCCCCCCCN1C(=CC=CC=CC2=[N+](CCCCCCCCCCCCCCCCCC)c3ccccc3C2(C)C)C(C)(C)c2ccccc21.[I-] [DiD, 1,1′-dioctadecyl-3,3,3′,3′-tetramethylindodicarbocyanine iodide]
cellular localisation of the hydrophobic fluorescent material DiD: stained the cell membrane
